{"source": "ChEMBL document CHEMBL4402522", "about": "“Exploring the new horizons of drug repurposing: A vital tool for turning hard work into smart work” (2019)", "key": {"[1]": {"tested_on": "C6", "test": "(§1) Antitumour activity against rat C6 cells implanted in Wistar rat assessed as reduction in reactive astrocytes induced peri-tumoral areas at 25 mg/kg, ip administered on alternate days in total 3 doses and measured on day 7 co-treated with temozolomide by immunohistochemical analysis relative to control", "type": "functional", "set-up": "scale not given: the % may be the effect or the level left"}, "[2]": {"tested_on": "C6", "test": "as §1, with “induced” for “induced peri-tumoral”, “areas of blood vessels” for “areas”", "type": "functional", "set-up": "scale not given: the % may be the effect or the level left"}}, "data": [{"smiles": "CC[C@H](CO)Nc1nc(NCc2ccccc2)c2ncn(C(C)C)c2n1", "note": "[SELICICLIB]", "values": [{"measurement": "Activity", "setting": "[1]", "result": 100, "unit": "%"}, {"measurement": "Activity", "setting": "[2]", "result": 100, "unit": "%"}]}]}
